Assay: Water content of the crystalline forms (gravimetric vapour sorption, 25° C.)
Assay type: physicochemical
Conditions: water content varies as a function of relative humidity; GVS profiles 20 to 75% RH at 25° C. (FIGS. 4-6); hydrochloride
Method: Measurements were performed on an IGASORP Model HAS-036-080 moisture sorption instrument (Hiden Isochema, Warrington, UK) operated in stepping mode at 25° C. The sample was allowed to equilibrate at the starting relative humidity (RH) before starting a pre-defined humidity program in steps of 5% ΔRH and with a maximal equilibration time of 24 hours per step. About 20 to 30 mg of each sample was used.

| coordinated and/or non-coordinated water comprised in the crystalline form | SMILES |
| --- | --- |
| 0 to 3% | CCCCOC(=O)N1CCN(C(=O)[C@H](CP(=O)(O)O)NC(=O)c2cc(N3CC[C@H](OC)C3)nc(-c3ccccc3)n2)CC1.Cl [Crystalline form 1, 4-((R)-2-{[6-((S)-3-methoxy-pyrrolidin-1-yl)-2-phenyl-pyrimidine-4-carbonyl]-amino}-3-phosphono-propionyl)-piperazine-1-carboxylic acid butyl ester hydrochloride] |
| 5 to 10% | CCCCOC(=O)N1CCN(C(=O)[C@H](CP(=O)(O)O)NC(=O)c2cc(N3CC[C@H](OC)C3)nc(-c3ccccc3)n2)CC1.Cl [Crystalline form 2, 4-((R)-2-{[6-((S)-3-methoxy-pyrrolidin-1-yl)-2-phenyl-pyrimidine-4-carbonyl]-amino}-3-phosphono-propionyl)-piperazine-1-carboxylic acid butyl ester hydrochloride] |
| 2.5 to 8% | CCCCOC(=O)N1CCN(C(=O)[C@H](CP(=O)(O)O)NC(=O)c2cc(N3CC[C@H](OC)C3)nc(-c3ccccc3)n2)CC1.Cl [Crystalline form 3, 4-((R)-2-{[6-((S)-3-methoxy-pyrrolidin-1-yl)-2-phenyl-pyrimidine-4-carbonyl]-amino}-3-phosphono-propionyl)-piperazine-1-carboxylic acid butyl ester hydrochloride] |

— US20250163086A1, “Crystalline Forms” (Viatris Asia Pacific Pte. Ltd., priority 2016, published 2025)
